Experimental data from patent US10501466B2, “WDR5 inhibitors and modulators” (Vanderbilt University, priority 2017, dated 2019).

system: MV4,11 human leukemia cells; assay: cells; settings: MV4-11, 168 h
Experimental: Anti-Proliferative Activity Using MLL-Harboring and Non-MLL Cell Lines.
Viability assays are performed by dispensing 5,000 cells into each well of an opaque 96-well plate and adding compounds at the indicated concentrations in a final volume of 100 μL and a final concentration of DMSO of 0.1% for all samples. After a set incubation period, either a 3 day or 7 day protocol, the viability of cells in each well is assessed using the CellTiter-Glo assay (Promega), read on a GloMax 96 Microplane Luminometer (Promega). Serial dilutions of each cell type are included in all assays to generate standard curves and determine assay measurements are taken within the dynamic range of the instrument. GI50 values are calculated based on three biological replicates, each with three technical replicates. Data are expressed as mean plus/minus S.E.M.

Question: For `O=C(Cc1ccc(Cl)c(Cl)c1)N[C@@H]1CCc2ccc(-c3cn4c(n3)CCC4)cc21` [Example B11, (R)-2-(3,4-dichlorophenyl)-N-(6-(6,7-dihydro-5H-pyrrolo[1,2-a]imidazol-2-yl)-2,3-dihydro-1H-inden-1-yl)acetamide], which GI50 is on record?
Answer: 8.89 µM

Question: Which GI50 does the source give for `COc1cc(C(=O)N[C@@H]2CCc3ccc(-c4cn5c(n4)CCC5)cc32)ccc1C` [Example B12, (R)—N-(6-(6,7-dihydro-5H-pyrrolo[1,2-a]imidazol-2-yl)-2,3-dihydro-1H-inden-1-yl)-3-methoxy-4-methylbenzamide] here?
Answer: 17.2 µM

Question: `COc1cc(C(=O)N[C@@H]2CCCc3ccc(-c4cn5c(n4)CCC5)cc32)ccc1C` [Example B14, (R)—N-(7-(6,7-dihydro-5H-pyrrolo[1,2-a]imidazol-2-yl)-1,2,3,4-tetrahydronaphthalen-1-yl)-3-methoxy-4-methylbenzamide] was tested. Which GI50 did it give?
Answer: 22.3 µM

Question: Which GI50 does the source give for `COc1cc(C(=O)N[C@@H]2CCc3ccc(-c4cn5c(n4)CCC5)cc32)cc(OC)c1C` [Example B29, (R)—N-(6-(6,7-dihydro-5H-pyrrolo[1,2-a]imidazol-2-yl)-2,3-dihydro-1H-inden-1-yl)-3,5-dimethoxy-4-methylbenzamide] here?
Answer: 7.25 µM

molecular target: WDR5 (Homo sapiens (Human), UniProt P61964); assay: not given; settings: FPA and TR-FRET binding affinity, WDR5 WIN-site

Question: How did the Ki turn out when `COc1cccc(C(=O)N(CC2CC2)C2CCc3ccc(-c4cn5c(n4)CCC5)cc32)c1` (stereo not drawn) [Example B1, N-(cyclopropylmethyl)-N-(6-(6,7-dihydro-5H-pyrrolo[1,2-a]imidazol-2-yl)-2,3-dihydro-1H-inden-1-yl)-3-methoxybenzamide] was run?
Answer: 0.693 µM

Question: Which Ki does the source give for `Cc1ccc(C(=O)NC2CCc3ccc(-c4cn5c(n4)CCC5)cc32)cc1C(F)(F)F` (stereo not drawn) [Example B2, N-(6-(6,7-dihydro-5H-pyrrolo[1,2-a]imidazol-2-yl)-2,3-dihydro-1H-inden-1-yl)-4-methyl-3-(trifluoromethyl)benzamide] here?
Answer: 1.38 µM

Question: With `CCOc1cccc(C(=O)NC2CCc3ccc(-c4cn5c(n4)CCC5)cc32)c1` (stereo not drawn) [Example B4, N-(6-(6,7-dihydro-5H-pyrrolo[1,2-a]imidazol-2-yl)-2,3-dihydro-1H-inden-1-yl)-3-ethoxybenzamide] as the molecule, how does the Ki read?
Answer: 0.0191 µM

Question: With `COc1cc(C)cc(C(=O)NC2CCc3ccc(-c4cn5c(n4)CCC5)cc32)c1` (stereo not drawn) [Example B5, N-(6-(6,7-dihydro-5H-pyrrolo[1,2-a]imidazol-2-yl)-2,3-dihydro-1H-inden-1-yl)-3-methoxy-5-methylbenzamide] as the molecule, how does the Ki read?
Answer: 0.027 µM

Question: Which Ki does the source give for `CC(=O)N1CCCC(C(=O)NC2CCc3ccc(-c4cn5c(n4)CCC5)cc32)C1` (stereo not drawn) [Example B7, 1-acetyl-N-(6-(6,7-dihydro-5H-pyrrolo[1,2-a]imidazol-2-yl)-2,3-dihydro-1H-inden-1-yl)piperidine-3-carboxamide] here?
Answer: 0.033 µM

Question: Which Ki does the source give for `CCC(=O)N1CCCC(C(=O)NC2CCc3ccc(-c4cn5c(n4)CCC5)cc32)C1` (stereo not drawn) [Example B8, N-(6-(6,7-dihydro-5H-pyrrolo[1,2-a]imidazol-2-yl)-2,3-dihydro-1H-inden-1-yl)-1-propionylpiperidine-3-carboxamide] here?
Answer: 0.021 µM

Question: With `O=C(NC1CCc2ccc(-c3cn4c(n3)CCC4)cc21)C1CCCN(C(=O)CC(F)(F)F)C1` (stereo not drawn) [Example B9, N-(6-(6,7-dihydro-5H-pyrrolo[1,2-a]imidazol-2-yl)-2,3-dihydro-1H-inden-1-yl)-1-(3,3,3-trifluoropropanoyl)piperidine-3-carboxamide] as the molecule, how does the Ki read?
Answer: 0.09 µM

Question: For `CC(C)C(=O)N1CCCC(C(=O)NC2CCc3ccc(-c4cn5c(n4)CCC5)cc32)C1` (stereo not drawn) [Example B10, N-(6-(6,7-dihydro-5H-pyrrolo[1,2-a]imidazol-2-yl)-2,3-dihydro-1H-inden-1-yl)-1-isobutyrylpiperidine-3-carboxamide], which Ki is on record?
Answer: 0.0709 µM

Question: With `CC(=O)N1CCCC(C(=O)N[C@@H]2CCc3ccc(-c4cn5c(n4)CCC5)cc32)C1` (stereo partly drawn) [Example B13, 1-acetyl-N—((R)-6-(6,7-dihydro-5H-pyrrolo[1,2-a]imidazol-2-yl)-2,3-dihydro-1H-inden-1-yl)piperidine-3-carboxamide] as the molecule, how does the Ki read?
Answer: 0.0174 µM

Question: Which Ki does the source give for `O=C(Cc1ccc(Cl)c(F)c1)N[C@@H]1CCc2ccc(-c3cn4c(n3)CCC4)cc21` [Example B15, (R)-2-(4-chloro-3-fluorophenyl)-N-(6-(6,7-dihydro-5H-pyrrolo[1,2-a]imidazol-2-yl)-2,3-dihydro-1H-inden-1-yl)acetamide] here?
Answer: 0.00237 µM

Question: `CCC(=O)N1CCCC(C(=O)N[C@@H]2CCc3ccc(-c4cn5c(n4)CCC5)cc32)C1` (stereo partly drawn) [Example B16, N—((R)-6-(6,7-dihydro-5H-pyrrolo[1,2-a]imidazol-2-yl)-2,3-dihydro-1H-inden-1-yl)-1-propionylpiperidine-3-carboxamide] was tested. Which Ki did it give?
Answer: 0.00716 µM

Question: How did the Ki turn out when `CC(=O)N1CCCC(C(=O)N[C@@H]2CCCc3ccc(-c4cn5c(n4)CCC5)cc32)C1` (stereo partly drawn) [Example B17, 1-acetyl-N—((R)-7-(6,7-dihydro-5H-pyrrolo[1,2-a]imidazol-2-yl)-1,2,3,4-tetrahydronaphthalen-1-yl)piperidine-3-carboxamide] was run?
Answer: 0.0362 µM

Question: How did the Ki turn out when `CCC(=O)N1CCCC(C(=O)N[C@@H]2CCCc3ccc(-c4cn5c(n4)CCC5)cc32)C1` (stereo partly drawn) [Example B18, N—((R)-7-(6,7-dihydro-5H-pyrrolo[1,2-a]imidazol-2-yl)-1,2,3,4-tetrahydronaphthalen-1-yl)-1-propionylpiperidine-3-carboxamide] was run?
Answer: 0.0143 µM

Question: `COc1ccc(C(=O)N[C@@H]2CCc3ccc(-c4cn5c(n4)CCC5)cc32)cn1` [Example B19, (R)—N-(6-(6,7-dihydro-5H-pyrrolo[1,2-a]imidazol-2-yl)-2,3-dihydro-1H-inden-1-yl)-6-methoxynicotinamide] was tested. Which Ki did it give?
Answer: 0.172 µM

Question: For `O=C(N[C@@H]1CCc2ccc(-c3cn4c(n3)CCC4)cc21)c1ccnc(Cl)c1` [Example B20, (R)-2-chloro-N-(6-(6,7-dihydro-5H-pyrrolo[1,2-a]imidazol-2-yl)-2,3-dihydro-1H-inden-1-yl)isonicotinamide], which Ki is on record?
Answer: 0.0956 µM

Question: With `Cc1cnc(Cl)c(C(=O)N[C@@H]2CCc3ccc(-c4cn5c(n4)CCC5)cc32)c1` [Example B21, (R)-2-chloro-N-(6-(6,7-dihydro-5H-pyrrolo[1,2-a]imidazol-2-yl)-2,3-dihydro-1H-inden-1-yl)-5-methylnicotinamide] as the molecule, how does the Ki read?
Answer: 0.0229 µM

Question: `Cc1cc(C(=O)N[C@@H]2CCc3ccc(-c4cn5c(n4)CCC5)cc32)cc(=O)[nH]1` [Example B22, (R)—N-(6-(6,7-dihydro-5H-pyrrolo[1,2-a]imidazol-2-yl)-2,3-dihydro-1H-inden-1-yl)-6-methyl-2-oxo-1,2-dihydropyridine-4-carboxamide] was tested. Which Ki did it give?
Answer: 0.426 µM

Question: With `Cc1cc(Cl)nc(C(=O)N[C@@H]2CCc3ccc(-c4cn5c(n4)CCC5)cc32)c1` [Example B23, (R)-6-chloro-N-(6-(6,7-dihydro-5H-pyrrolo[1,2-a]imidazol-2-yl)-2,3-dihydro-1H-inden-1-yl)-4-methylpicolinamide] as the molecule, how does the Ki read?
Answer: 0.769 µM

Question: With `Cc1ccc(C(=O)N[C@@H]2CCc3ccc(-c4cn5c(n4)CCC5)cc32)cc1O` [Example B25, (R)—N-(6-(6,7-dihydro-5H-pyrrolo[1,2-a]imidazol-2-yl)-2,3-dihydro-1H-inden-1-yl)-3-hydroxy-4-methylbenzamide] as the molecule, how does the Ki read?
Answer: 0.71 µM

Question: With `COc1cncc(C(=O)N[C@@H]2CCc3ccc(-c4cn5c(n4)CCC5)cc32)c1` [Example B26, (R)—N-(6-(6,7-dihydro-5H-pyrrolo[1,2-a]imidazol-2-yl)-2,3-dihydro-1H-inden-1-yl)-5-methoxynicotinamide] as the molecule, how does the Ki read?
Answer: 0.0185 µM

Question: For `CC(=O)Nc1cc(C(=O)N[C@@H]2CCc3ccc(-c4cn5c(n4)CCC5)cc32)ccc1C` [Example B27, (R)-3-acetamido-N-(6-(6,7-dihydro-5H-pyrrolo[1,2-a]imidazol-2-yl)-2,3-dihydro-1H-inden-1-yl)-4-methylbenzamide], which Ki is on record?
Answer: 0.73 µM

Question: `Cc1ccc(C(=O)N[C@@H]2CCc3ccc(-c4cn5c(n4)CCC5)cc32)c(Cl)n1` [Example B28, (R)-2-chloro-N-(6-(6,7-dihydro-5H-pyrrolo[1,2-a]imidazol-2-yl)-2,3-dihydro-1H-inden-1-yl)-6-methylnicotinamide] was tested. Which Ki did it give?
Answer: 0.169 µM

Question: With `O=C(N[C@@H]1CCc2ccc(-c3cn4c(n3)CCC4)cc21)c1ccncc1F` [Example B30, (R)—N-(6-(6,7-dihydro-5H-pyrrolo[1,2-a]imidazol-2-yl)-2,3-dihydro-1H-inden-1-yl)-3-fluoroisonicotinamide] as the molecule, how does the Ki read?
Answer: 3.75 µM

Question: How did the Ki turn out when `O=C(N[C@@H]1CCc2ccc(-c3cn4c(n3)CCC4)cc21)c1ccc(=O)[nH]c1` [Example B31, (R)—N-(6-(6,7-dihydro-5H-pyrrolo[1,2-a]imidazol-2-yl)-2,3-dihydro-1H-inden-1-yl)-6-oxo-1,6-dihydropyridine-3-carboxamide] was run?
Answer: 0.835 µM

Question: With `O=C(N[C@@H]1CCc2ccc(-c3cn4c(n3)CCC4)cc21)c1cncc(F)c1` [Example B32, (R)—N-(6-(6,7-dihydro-5H-pyrrolo[1,2-a]imidazol-2-yl)-2,3-dihydro-1H-inden-1-yl)-5-fluoronicotinamide] as the molecule, how does the Ki read?
Answer: 0.568 µM

Question: How did the Ki turn out when `COc1cc(C(=O)N[C@@H]2CCN(C(C)=O)c3ccc(-c4cn5c(n4)CCC5)cc32)ccc1C` [Example B33, (R)—N-(1-acetyl-6-(6,7-dihydro-5H-pyrrolo[1,2-a]imidazol-2-yl)-1,2,3,4-tetrahydroquinolin-4-yl)-3-methoxy-4-methylbenzamide] was run?
Answer: 0.0222 µM
